Measurements taken from patent US10563272B2, “Compositions comprising Metarhizium fungi and use thereof as a pesticide” (Cotton Research and Development Corporation, priority 2015, dated 2020).

Legend:
[1] = system: green mirids; assay: Rate trial on conventional cotton, ACRI 2011-12 (Example 9): green mirids; format: in vivo, Creontiades dilutus
Procedure: This trial was conducted in an irrigated field of commercial conventional cotton at the Australian Cotton Research Institute (ACRI) farm in Narrabri, NSW, during the 2011-2012 season. The treatments in this trial were as follows: • 1. 250 mL/ha DAT 511; • 2. 500 mL/ha DAT 511; and • 3. 1 L/ha DAT 511.
Results were compared with data from unsprayed conventional cotton crops (negative control) and conventional cotton crops treated with 62.5 mL/ha of fipronil. The population of apple dimpling bugs at the study site was higher than GVB and green mirids, and remained so throughout the season. Therefore the trials were treated and assessed from 8 Jan. to 12 Feb. 2012 for green mirids, 26 Feb. 2012 for GVB and 4 Mar. 2012 for apple dimpling bugs. The treatment plots were arranged in a randomized complete block design with eight replicates per treatment. Each replicated plot measured 16 m (16 rows) wide and 250 m long.
Foliar applications of each treatment were made on 8 Jan. 22 Jan. and 5 Feb. 2012. The decision to apply the treatment was based on the IPM Guidelines and the CottonLogic recommended economic threshold of 0.5 green mirids per metre. Pre-treatment counts were made by visual counting of the numbers of green mirid, green vegetable bug and apple dimpling bug adults and nymphs, as well as predatory beetles, predatory bugs, predatory lacewings and spiders on cotton plants in each treatment. Post-treatment counts were made following the first spray at 7 and 14 DAT, following the second spray at 7 DAT for green mirids and GVB, and up to 28 DAT for the third spray for apple dimpling bugs. All counts were done on a randomly selected one-metre length of row of each treatment replicate (i.e. total of 8 m). Data were expressed as numbers per metre and numbers per metre per sampling date for each treatment.

[2] = system: predatory beetles; assay: Rate trial on conventional cotton, Norwood 2012 (Example 10): predatory beetles; format: in vivo, Coleoptera (Coccinellidae, Melyridae); conditions: 3 and 6 Mar. 2012; fipronil 62.5 mL/ha; P<0.05
Procedure: This trial was conducted on commercial conventional cotton crops on a farm at Norwood (29° 28'S, 149° 50′E) near Moree, NSW, from 28 Feb. to 21 Mar. 2012. The cotton used for the trial was at the early squaring stage, when it was attractive to green mirids (Khan et al. 2004).
(§1) The efficacy of the following treatments against green mirids and predatory insects were evaluated: • 1. 250 mL/ha DAT 511 spore in oil (1×10^7 spores/ml); • 2. 500 mL/ha DAT 511 spore in oil (1×10^7 spores/ml); • 3. 1 L/ha DAT 511 spore in oil (1×10^7 spores/ml); • 4. 62.5 mL/ha of Fipronil; and • 5. Unsprayed (negative control).
The treatment plots were arranged in a randomized complete block design with six replicates per treatment. Each replicated plot measured 40 m wide (40 rows) and 90 m long.
Foliar application of each treatment was made on 28 Feb. (for both green mirids and beneficial insects) and 13 Mar. […]
Pre-treatment counts of adult and nymph green mirids, predatory beetles, predatory bugs, predatory lacewings and spiders were made by visual inspection of whole cotton plants. Both adults and nymphs of beneficial insects were counted. Plants were assessed in randomly selected one-metre lengths of row of each treatment replicate (i.e. 6 m per treatment). […] Data are expressed as numbers of green mirid adults and nymphs counted per metre per treatment.

[3] = system: spiders; assay: Rate trial on conventional cotton refuge crops, Undabri 2012 (Example 12): spiders; format: in vivo, Lycosa spp., Oxyopes spp., Salticidae spp., Araneus spp.; conditions: DAT 511 250 mL/ha, 500 mL/ha and 1.0 L/ha; fipronil 62.5 mL/ha
Procedure: This trial was conducted using commercial conventional cotton refuge crops at Undabri in Goondiwindi (28° 55'S, 150° 31′E) from 14 Feb. to 6 Mar. 2012.
as §1, with “mirids, green vegetable bugs” for “mirids”, “was assessed:” for “were evaluated:”, “fipronil;” for “of Fipronil;”
The plots were arranged in a randomized complete block design with three replicates per treatment. Each replicated plot measured 8 m (8 rows) wide and 250 m long.
Foliar applications of each treatment were made on 14 Feb. 2012 using a ground spray rig fitted with flat fan nozzles to achieve a droplet size of 200 μm. All insecticide formulations were water miscible. All treatments were applied using a spray volume of 100 L/ha. The untreated (negative control) plot was left unsprayed and the plot treated with synthetic insecticide received two applications similar to, and on the same date as, the plots treated with the fungus.
For each replicate, visual counts of adults and nymphs of green mirids, green vegetable bugs (GVB), apple dimpling bugs and predatory insects on whole cotton plants were made in a randomly selected 1 m length of row of cotton plants (i.e. 6 m per treatment). […]

N#Cc1nn(-c2c(Cl)cc(C(F)(F)F)cc2Cl)c(N)c1[S+]([O-])C(F)(F)F (centres unmarked) [fipronil]
adult mirids found on treated plots ([1]; at the second spray application): no adult mirids were found
adult and nymph green mirids versus unsprayed (control) plots ([1]; different rates of DAT 511, fipronil 62.5 mL/ha, P<0.0001): Significantly fewer
mirid nymphs found on treated plots ([1]; seven days after second spray, DAT 511 500 mL and 1.0 L/ha, fipronil): no mirid nymphs were found
number of predatory beetles per metre versus unsprayed and DAT 511 treated plots [2]: significantly lower
effect on number of spiders per metre [3]: significantly lower
